# Test results as given in PubChem BioAssay (NCI).
#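 Cultured in 96-well plates, cells were exposed to test compound for 48 hours across five concentrations. GI50 is the concentration that inhibits growth by half. At the TGI there is no net growth.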
# How the values were obtained:
# Test in all cases: DTP human tumour cell line panel, 48 h
# SF-268 CNS = tested on: SF-268 CNS
# HCC-2998 colon = tested on: HCC-2998 colon
# TK-10 renal = tested on: TK-10 renal
# HCT-116 colon = tested on: HCT-116 colon
# SF-539 CNS = tested on: SF-539 CNS
# SN12C renal = tested on: SN12C renal
# MDA-MB-231 breast = tested on: MDA-MB-231 breast
# COLO 205 colon = tested on: COLO 205 colon
# NCI-H226 lung = tested on: NCI-H226 lung
# MALME-3M melanoma = tested on: MALME-3M melanoma
# SW-620 colon = tested on: SW-620 colon
# SF-295 CNS = tested on: SF-295 CNS
# CAKI-1 renal = tested on: CAKI-1 renal
# NCI-H23 lung = tested on: NCI-H23 lung
# KM12 colon = tested on: KM12 colon
# SR leukemia = tested on: SR leukemia
# NCI-H460 lung = tested on: NCI-H460 lung
# OVCAR-4 ovarian = tested on: OVCAR-4 ovarian
# UACC-257 melanoma = tested on: UACC-257 melanoma
# A549 NSCLC = tested on: A549 NSCLC
# OVCAR-8 ovarian = tested on: OVCAR-8 ovarian
# M14 melanoma = tested on: M14 melanoma
# MDA-MB-435 = tested on: MDA-MB-435
# IGROV1 ovarian = tested on: IGROV1 ovarian
# PC-3 prostate = tested on: PC-3 prostate
# SK-OV-3 ovarian = tested on: SK-OV-3 ovarian
# SK-MEL-28 melanoma = tested on: SK-MEL-28 melanoma
# HS 578T breast = tested on: HS 578T breast
# MCF7 breast = tested on: MCF7 breast
# CCRF-CEM leukemia = tested on: CCRF-CEM leukemia
# BT-549 breast = tested on: BT-549 breast
# 786-0 renal = tested on: 786-0 renal
# ACHN renal = tested on: ACHN renal
# RPMI-8226 leukemia = tested on: RPMI-8226 leukemia
# NCI-H522 lung = tested on: NCI-H522 lung
# RXF 393 renal = tested on: RXF 393 renal
# NCI/ADR-RES ovarian = tested on: NCI/ADR-RES ovarian
# LOX IMVI melanoma = tested on: LOX IMVI melanoma
# SNB-19 CNS = tested on: SNB-19 CNS
# MOLT-4 leukemia = tested on: MOLT-4 leukemia
# A498 renal = tested on: A498 renal
# SK-MEL-5 melanoma = tested on: SK-MEL-5 melanoma
# K-562 leukemia = tested on: K-562 leukemia
# UACC-62 melanoma = tested on: UACC-62 melanoma
# SNB-75 CNS = tested on: SNB-75 CNS
# SK-MEL-2 melanoma = tested on: SK-MEL-2 melanoma
# U251 CNS = tested on: U251 CNS
# EKVX NSCLC = tested on: EKVX NSCLC
# OVCAR-5 ovarian = tested on: OVCAR-5 ovarian
# UO-31 renal = tested on: UO-31 renal
# HCT-15 colon = tested on: HCT-15 colon
# T-47D breast = tested on: T-47D breast
# HOP-62 NSCLC = tested on: HOP-62 NSCLC
# OVCAR-3 ovarian = tested on: OVCAR-3 ovarian
# HL-60(TB) leukemia = tested on: HL-60(TB) leukemia
# DU-145 prostate = tested on: DU-145 prostate
# HT29 colon = tested on: HT29 colon
compound,measurement,setting,value
Nc1nonc1-c1nc2cnccc2n1C1CCCCC1,GI50,SF-268 CNS,> 25 µM
same,TGI,SF-268 CNS,> 25 µM
same,GI50,HCC-2998 colon,> 25 µM
same,TGI,HCC-2998 colon,> 25 µM
same,GI50,TK-10 renal,3.44 µM
same,TGI,TK-10 renal,> 25 µM
same,GI50,HCT-116 colon,7.45 µM
same,TGI,HCT-116 colon,> 25 µM
same,GI50,SF-539 CNS,3.7 µM
same,TGI,SF-539 CNS,> 25 µM
same,GI50,SN12C renal,12.5 µM
same,TGI,SN12C renal,> 25 µM
same,GI50,MDA-MB-231 breast,> 25 µM
same,TGI,MDA-MB-231 breast,> 25 µM
same,GI50,COLO 205 colon,6.9 µM
same,TGI,COLO 205 colon,> 25 µM
same,GI50,NCI-H226 lung,12.9 µM
same,TGI,NCI-H226 lung,> 25 µM
same,GI50,MALME-3M melanoma,> 25 µM
same,TGI,MALME-3M melanoma,> 25 µM
same,GI50,SW-620 colon,14 µM
same,TGI,SW-620 colon,> 25 µM
same,GI50,SF-295 CNS,9.48 µM
same,TGI,SF-295 CNS,> 25 µM
same,GI50,CAKI-1 renal,11.6 µM
same,TGI,CAKI-1 renal,> 25 µM
same,GI50,NCI-H23 lung,> 18.5 µM
same,TGI,NCI-H23 lung,> 25 µM
same,GI50,KM12 colon,9.16 µM
same,TGI,KM12 colon,> 25 µM
same,GI50,SR leukemia,7.35 µM
same,TGI,SR leukemia,> 25 µM
same,GI50,NCI-H460 lung,10.3 µM
same,TGI,NCI-H460 lung,> 25 µM
same,GI50,OVCAR-4 ovarian,> 16.6 µM
same,TGI,OVCAR-4 ovarian,> 25 µM
same,GI50,UACC-257 melanoma,> 25 µM
same,TGI,UACC-257 melanoma,> 25 µM
same,GI50,A549 NSCLC,13 µM
same,TGI,A549 NSCLC,> 25 µM
same,GI50,OVCAR-8 ovarian,12.8 µM
same,TGI,OVCAR-8 ovarian,> 25 µM
same,GI50,M14 melanoma,24 µM
same,TGI,M14 melanoma,> 25 µM
same,GI50,MDA-MB-435,22.5 µM
same,TGI,MDA-MB-435,> 25 µM
same,GI50,IGROV1 ovarian,> 23.1 µM
same,TGI,IGROV1 ovarian,> 25 µM
same,GI50,PC-3 prostate,> 19.9 µM
same,TGI,PC-3 prostate,> 25 µM
same,GI50,SK-OV-3 ovarian,18.8 µM
same,TGI,SK-OV-3 ovarian,> 25 µM
same,GI50,SK-MEL-28 melanoma,> 25 µM
same,TGI,SK-MEL-28 melanoma,> 25 µM
same,GI50,HS 578T breast,13.9 µM
same,TGI,HS 578T breast,> 25 µM
same,GI50,MCF7 breast,9.44 µM
same,TGI,MCF7 breast,> 25 µM
same,GI50,CCRF-CEM leukemia,7.84 µM
same,TGI,CCRF-CEM leukemia,> 25 µM
same,GI50,BT-549 breast,6.29 µM
same,TGI,BT-549 breast,> 25 µM
same,GI50,786-0 renal,11.1 µM
same,TGI,786-0 renal,> 25 µM
same,GI50,ACHN renal,12 µM
same,TGI,ACHN renal,> 25 µM
same,GI50,RPMI-8226 leukemia,16.1 µM
same,TGI,RPMI-8226 leukemia,> 25 µM
same,GI50,NCI-H522 lung,6.01 µM
same,TGI,NCI-H522 lung,23.4 µM
same,GI50,RXF 393 renal,4.8 µM
same,TGI,RXF 393 renal,> 25 µM
same,GI50,NCI/ADR-RES ovarian,> 22.1 µM
same,TGI,NCI/ADR-RES ovarian,> 25 µM
same,GI50,LOX IMVI melanoma,16.3 µM
same,TGI,LOX IMVI melanoma,> 25 µM
same,GI50,SNB-19 CNS,> 25 µM
same,TGI,SNB-19 CNS,> 25 µM
same,GI50,MOLT-4 leukemia,12 µM
same,TGI,MOLT-4 leukemia,> 25 µM
same,GI50,A498 renal,5.09 µM
same,TGI,A498 renal,> 25 µM
same,GI50,SK-MEL-5 melanoma,6.04 µM
same,TGI,SK-MEL-5 melanoma,> 19.2 µM
same,GI50,K-562 leukemia,11 µM
same,TGI,K-562 leukemia,> 25 µM
same,GI50,UACC-62 melanoma,14.3 µM
same,TGI,UACC-62 melanoma,> 25 µM
same,GI50,SNB-75 CNS,2.42 µM
same,TGI,SNB-75 CNS,> 25 µM
same,GI50,SK-MEL-2 melanoma,12 µM
same,TGI,SK-MEL-2 melanoma,> 25 µM
same,GI50,U251 CNS,16.5 µM
same,TGI,U251 CNS,> 25 µM
same,GI50,EKVX NSCLC,> 20.3 µM
same,TGI,EKVX NSCLC,> 25 µM
same,GI50,OVCAR-5 ovarian,> 25 µM
same,TGI,OVCAR-5 ovarian,> 25 µM
same,GI50,UO-31 renal,> 24 µM
same,TGI,UO-31 renal,> 25 µM
same,GI50,HCT-15 colon,13.4 µM
same,TGI,HCT-15 colon,> 25 µM
same,GI50,T-47D breast,13.3 µM
same,TGI,T-47D breast,> 25 µM
same,GI50,HOP-62 NSCLC,> 25 µM
same,TGI,HOP-62 NSCLC,> 25 µM
same,GI50,OVCAR-3 ovarian,10.7 µM
same,TGI,OVCAR-3 ovarian,> 25 µM
same,GI50,HL-60(TB) leukemia,7.25 µM
same,TGI,HL-60(TB) leukemia,19.6 µM
same,GI50,DU-145 prostate,20.5 µM
same,TGI,DU-145 prostate,> 25 µM
same,GI50,HT29 colon,9.87 µM
same,TGI,HT29 colon,> 25 µM
